Assay results: PMC3961306, “Comparison of the Cancer Gene Targeting and Biochemical Selectivities of All Targeted Kinase Inhibitors Approved for Clinical Use” (PLoS ONE, 2014)

What was measured:
Test in all cases: Kinase profiling in a biochemical assay panel (mobility shift assays and ELISA), %-inhibition at 1 μM; selectivity entropy
[1] = biological target: panel of more than 300 wild-type and mutant kinases (313 kinase panel) (Homo sapiens, UniProt O00311); settings: kinase CDC7/ASK; 1 μM compound
[2] = biological target: panel of more than 300 wild-type and mutant kinases (313 kinase panel) (Homo sapiens, UniProt O14578); settings: kinase CRIK; compound at 1 μM
panel of more than 300 wild-type and mutant kinases (313 kinase panel) (Homo sapiens, UniProt O14578), sequence (O14578 whole entry, change not shown): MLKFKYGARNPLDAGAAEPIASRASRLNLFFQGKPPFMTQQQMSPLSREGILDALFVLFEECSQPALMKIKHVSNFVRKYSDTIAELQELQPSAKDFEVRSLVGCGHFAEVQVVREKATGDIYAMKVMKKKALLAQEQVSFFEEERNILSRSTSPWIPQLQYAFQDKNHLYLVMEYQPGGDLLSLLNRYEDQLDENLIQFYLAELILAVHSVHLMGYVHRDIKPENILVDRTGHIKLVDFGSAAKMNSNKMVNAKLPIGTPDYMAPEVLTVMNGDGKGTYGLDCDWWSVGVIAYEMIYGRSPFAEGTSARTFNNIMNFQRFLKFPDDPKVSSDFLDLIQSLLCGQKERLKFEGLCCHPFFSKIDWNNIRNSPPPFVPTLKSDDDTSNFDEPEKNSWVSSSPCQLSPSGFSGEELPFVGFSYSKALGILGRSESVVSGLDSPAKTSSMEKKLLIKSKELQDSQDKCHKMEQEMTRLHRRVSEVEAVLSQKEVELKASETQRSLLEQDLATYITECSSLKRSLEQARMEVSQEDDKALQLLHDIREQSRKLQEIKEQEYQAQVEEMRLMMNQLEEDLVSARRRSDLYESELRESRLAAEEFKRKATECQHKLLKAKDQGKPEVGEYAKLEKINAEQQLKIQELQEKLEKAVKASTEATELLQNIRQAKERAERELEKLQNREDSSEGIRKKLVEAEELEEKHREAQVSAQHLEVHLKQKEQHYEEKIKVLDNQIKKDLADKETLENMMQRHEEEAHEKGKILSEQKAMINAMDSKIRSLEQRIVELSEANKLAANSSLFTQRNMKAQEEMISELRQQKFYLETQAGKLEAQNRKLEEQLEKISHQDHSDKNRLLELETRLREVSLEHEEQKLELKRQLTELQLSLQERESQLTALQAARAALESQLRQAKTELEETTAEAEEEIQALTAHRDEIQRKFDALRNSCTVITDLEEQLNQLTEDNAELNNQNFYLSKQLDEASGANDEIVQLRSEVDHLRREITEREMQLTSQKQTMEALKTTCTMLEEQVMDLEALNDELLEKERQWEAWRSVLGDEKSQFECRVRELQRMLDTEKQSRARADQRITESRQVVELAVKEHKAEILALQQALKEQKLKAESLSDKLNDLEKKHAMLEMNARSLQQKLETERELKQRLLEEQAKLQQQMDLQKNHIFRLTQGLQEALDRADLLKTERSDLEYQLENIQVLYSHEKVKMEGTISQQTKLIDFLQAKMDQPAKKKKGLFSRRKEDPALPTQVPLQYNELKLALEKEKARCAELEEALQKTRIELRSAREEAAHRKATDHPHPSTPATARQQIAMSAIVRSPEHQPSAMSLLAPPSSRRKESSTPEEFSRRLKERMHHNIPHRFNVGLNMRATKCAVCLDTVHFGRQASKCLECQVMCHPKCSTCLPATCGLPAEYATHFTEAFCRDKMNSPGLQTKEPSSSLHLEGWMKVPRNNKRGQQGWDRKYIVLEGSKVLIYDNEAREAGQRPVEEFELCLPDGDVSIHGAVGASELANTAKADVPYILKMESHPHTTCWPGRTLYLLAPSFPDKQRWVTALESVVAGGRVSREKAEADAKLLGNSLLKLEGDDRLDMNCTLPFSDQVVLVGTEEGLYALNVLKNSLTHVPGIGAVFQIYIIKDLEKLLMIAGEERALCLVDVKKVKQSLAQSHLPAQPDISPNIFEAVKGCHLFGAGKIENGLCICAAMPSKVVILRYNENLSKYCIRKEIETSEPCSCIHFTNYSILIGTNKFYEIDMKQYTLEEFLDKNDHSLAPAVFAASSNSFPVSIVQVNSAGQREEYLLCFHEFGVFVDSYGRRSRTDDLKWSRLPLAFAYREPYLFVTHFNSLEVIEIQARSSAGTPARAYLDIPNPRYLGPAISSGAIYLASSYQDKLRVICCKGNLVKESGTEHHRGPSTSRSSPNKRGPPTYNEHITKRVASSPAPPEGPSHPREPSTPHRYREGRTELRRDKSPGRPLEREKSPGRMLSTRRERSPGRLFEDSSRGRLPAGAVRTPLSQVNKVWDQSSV

[3] = biological target: T1, panel of more than 300 wild-type and mutant kinases (313 kinase panel) (Homo sapiens, UniProt O15111); settings: kinase IKKα; compound at 1 μM
T1 sequence (O15111 1-745): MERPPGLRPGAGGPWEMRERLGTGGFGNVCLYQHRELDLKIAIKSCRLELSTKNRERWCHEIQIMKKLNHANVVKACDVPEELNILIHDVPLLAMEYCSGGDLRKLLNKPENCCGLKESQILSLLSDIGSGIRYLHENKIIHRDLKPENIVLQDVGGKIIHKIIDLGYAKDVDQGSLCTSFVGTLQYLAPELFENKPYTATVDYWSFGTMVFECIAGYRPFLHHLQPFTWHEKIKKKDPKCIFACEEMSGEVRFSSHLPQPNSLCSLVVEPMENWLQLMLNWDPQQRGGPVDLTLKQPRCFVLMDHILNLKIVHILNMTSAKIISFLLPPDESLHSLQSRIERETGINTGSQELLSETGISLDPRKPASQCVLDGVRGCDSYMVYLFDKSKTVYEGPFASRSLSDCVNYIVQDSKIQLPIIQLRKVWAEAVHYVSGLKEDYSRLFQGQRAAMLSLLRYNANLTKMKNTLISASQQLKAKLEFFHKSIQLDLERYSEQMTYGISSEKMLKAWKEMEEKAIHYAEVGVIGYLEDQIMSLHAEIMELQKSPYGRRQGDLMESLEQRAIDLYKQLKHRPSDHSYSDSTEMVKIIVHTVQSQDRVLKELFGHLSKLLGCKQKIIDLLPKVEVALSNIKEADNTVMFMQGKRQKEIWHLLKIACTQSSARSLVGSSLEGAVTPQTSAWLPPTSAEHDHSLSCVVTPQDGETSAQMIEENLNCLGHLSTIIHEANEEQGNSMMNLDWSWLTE

[4] = biological target: panel of more than 300 wild-type and mutant kinases (313 kinase panel) (Homo sapiens, UniProt P10721, V560G); settings: kinase KIT(V560G); compound at 1 μM
panel of more than 300 wild-type and mutant kinases (313 kinase panel) (Homo sapiens, UniProt P10721, V560G), sequence (P10721 26-976 V560G): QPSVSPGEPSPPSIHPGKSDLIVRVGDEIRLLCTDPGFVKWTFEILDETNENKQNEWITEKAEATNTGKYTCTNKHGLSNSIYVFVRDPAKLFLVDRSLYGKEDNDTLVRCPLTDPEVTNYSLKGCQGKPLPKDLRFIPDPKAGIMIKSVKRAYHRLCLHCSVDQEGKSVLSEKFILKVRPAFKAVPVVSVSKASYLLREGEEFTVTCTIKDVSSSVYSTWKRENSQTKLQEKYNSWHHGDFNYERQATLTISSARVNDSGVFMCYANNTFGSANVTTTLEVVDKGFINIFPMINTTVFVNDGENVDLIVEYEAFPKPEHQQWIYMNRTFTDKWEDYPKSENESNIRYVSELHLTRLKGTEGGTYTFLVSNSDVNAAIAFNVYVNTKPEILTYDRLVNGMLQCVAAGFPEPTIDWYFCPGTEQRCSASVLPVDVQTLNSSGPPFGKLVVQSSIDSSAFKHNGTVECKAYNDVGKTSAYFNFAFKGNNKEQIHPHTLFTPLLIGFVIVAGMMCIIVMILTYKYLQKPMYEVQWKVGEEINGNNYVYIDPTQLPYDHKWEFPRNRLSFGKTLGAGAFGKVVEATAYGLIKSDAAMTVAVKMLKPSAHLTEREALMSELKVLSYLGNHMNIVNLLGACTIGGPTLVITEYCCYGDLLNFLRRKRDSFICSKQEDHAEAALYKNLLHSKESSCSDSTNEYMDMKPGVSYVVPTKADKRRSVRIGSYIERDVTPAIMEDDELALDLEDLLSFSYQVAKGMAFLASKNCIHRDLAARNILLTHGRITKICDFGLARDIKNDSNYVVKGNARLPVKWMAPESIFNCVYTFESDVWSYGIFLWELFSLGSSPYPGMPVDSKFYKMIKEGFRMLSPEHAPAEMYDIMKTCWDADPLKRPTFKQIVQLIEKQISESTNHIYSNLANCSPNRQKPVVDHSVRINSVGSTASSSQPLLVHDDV

[5] = biological target: panel of more than 300 wild-type and mutant kinases (313 kinase panel) (Homo sapiens, UniProt P57059); settings: kinase SIK; 1 μM
[6] = biological target: panel of more than 300 wild-type and mutant kinases (313 kinase panel) (Homo sapiens, UniProt P78362); settings: kinase SRPK2; 1 μM
[7] = biological target: T2, panel of more than 300 wild-type and mutant kinases (313 kinase panel) (Homo sapiens, UniProt Q13237); settings: kinase CGK2; 1 μM compound
T2 sequence (Q13237 1-762): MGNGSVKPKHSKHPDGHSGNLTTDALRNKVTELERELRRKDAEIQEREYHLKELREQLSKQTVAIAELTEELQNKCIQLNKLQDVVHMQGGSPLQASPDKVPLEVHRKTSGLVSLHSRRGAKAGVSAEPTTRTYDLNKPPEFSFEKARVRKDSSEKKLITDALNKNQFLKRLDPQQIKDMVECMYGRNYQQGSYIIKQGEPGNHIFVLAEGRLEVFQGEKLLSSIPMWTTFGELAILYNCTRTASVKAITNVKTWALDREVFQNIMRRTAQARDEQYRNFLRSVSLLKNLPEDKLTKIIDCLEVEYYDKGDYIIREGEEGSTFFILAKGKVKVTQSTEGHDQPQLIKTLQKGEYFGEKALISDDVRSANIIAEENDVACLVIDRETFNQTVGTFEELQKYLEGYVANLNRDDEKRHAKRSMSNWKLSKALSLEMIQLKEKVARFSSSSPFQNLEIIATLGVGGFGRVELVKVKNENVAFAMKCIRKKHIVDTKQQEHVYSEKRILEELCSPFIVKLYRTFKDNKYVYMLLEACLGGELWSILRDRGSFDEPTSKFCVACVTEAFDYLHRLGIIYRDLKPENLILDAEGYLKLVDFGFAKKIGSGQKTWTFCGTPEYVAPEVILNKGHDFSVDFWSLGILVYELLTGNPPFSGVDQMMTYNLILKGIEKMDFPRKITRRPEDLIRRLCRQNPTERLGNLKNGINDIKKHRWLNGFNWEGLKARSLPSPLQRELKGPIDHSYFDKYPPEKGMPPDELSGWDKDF

[8] = biological target: panel of more than 300 wild-type and mutant kinases (313 kinase panel) (Homo sapiens, UniProt Q9Y463); settings: kinase DYRK1B; compound at 1 μM
panel of more than 300 wild-type and mutant kinases (313 kinase panel) (Homo sapiens, UniProt Q9Y463), sequence (Q9Y463 whole entry, change not shown): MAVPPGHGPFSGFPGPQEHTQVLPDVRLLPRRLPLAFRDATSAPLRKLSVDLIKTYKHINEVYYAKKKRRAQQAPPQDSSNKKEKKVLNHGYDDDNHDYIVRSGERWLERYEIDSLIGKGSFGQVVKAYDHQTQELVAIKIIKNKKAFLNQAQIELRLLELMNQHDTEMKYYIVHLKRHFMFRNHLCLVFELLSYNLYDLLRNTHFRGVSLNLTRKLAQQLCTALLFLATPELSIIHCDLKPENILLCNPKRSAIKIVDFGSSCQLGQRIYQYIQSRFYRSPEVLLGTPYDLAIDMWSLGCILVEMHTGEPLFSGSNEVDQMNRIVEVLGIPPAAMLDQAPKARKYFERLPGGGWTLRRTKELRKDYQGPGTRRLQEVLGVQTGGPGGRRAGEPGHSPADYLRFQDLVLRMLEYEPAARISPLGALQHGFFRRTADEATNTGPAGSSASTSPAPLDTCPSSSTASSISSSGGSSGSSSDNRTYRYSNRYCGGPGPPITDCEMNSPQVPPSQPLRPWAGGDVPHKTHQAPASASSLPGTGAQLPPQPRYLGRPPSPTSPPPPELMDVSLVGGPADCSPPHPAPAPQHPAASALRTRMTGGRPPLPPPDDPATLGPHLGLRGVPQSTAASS

[9] = biological target: panel of more than 300 wild-type and mutant kinases (313 kinase panel) (Homo sapiens, UniProt P24941); settings: 1 μM compound; for %-inhibition, CDK2/CycA2: kinase CDK2/CycA2; for %-inhibition, CDK2/CycE1: kinase CDK2/CycE1
[10] = biological target: panel of more than 300 wild-type and mutant kinases (313 kinase panel) (Homo sapiens, UniProt Q5VT25); settings: kinase MRCKα; 1 μM

SMILES	%-inhibition, CDC7/ASK [1] [%]	%-inhibition of CRIK [2] [%]	%-inhibition of IKKα [3] [%]	%-inhibition of KIT(V560G) [4] [%]	%-inhibition of SIK [5] [%]	%-inhibition of SRPK2 [6] [%]	%-inhibition, CGK2 [7] [%]	%-inhibition of DYRK1B [8] [%]	%-inhibition, CDK2/CycA2 [9] [%]	%-inhibition, CDK2/CycE1 [9] [%]	%-inhibition of MRCKα [10] [%]
COc1cc(Nc2c(C#N)cnc3cc(OCCCN4CCN(C)CC4)c(OC)cc23)c(Cl)cc1Cl [bosutinib]	-5.36	73	1.66	7	100	-9	-0.53	-5			
COc1cc2nccc(Oc3ccc(NC(=O)C4(C(=O)Nc5ccc(F)cc5)CC4)cc3)c2cc1OC [cabozantinib]	-3.4	-10	-1.89	96	6	0.2	-2.55	-5	-9	5	0.575
C[C@@H](Oc1cc(-c2cnn(C3CCNCC3)c2)cnc1N)c1c(Cl)ccc(F)c1Cl [crizotinib]		-12	-1.78	0.851	26	-2.33	-0.915	-3		-14	-8
CC(C)(C)c1nc(-c2cccc(NS(=O)(=O)c3c(F)cccc3F)c2F)c(-c2ccnc(N)n2)s1 [dabrafenib]	-6	-2.74			100	11	-1.38	29			-1.84
Cc1nc(Nc2ncc(C(=O)Nc3c(C)cccc3Cl)s2)cc(N2CCN(CCO)CC2)n1 [dasatinib]	3	10					-6		5	12	
Cc1cn(-c2cc(NC(=O)c3ccc(C)c(Nc4nccc(-c5cccnc5)n4)c3)cc(C(F)(F)F)c2)cn1 [nilotinib]	-7	-16	1.27		-25	-0.605	12	-7.58	-0.282	20	-13
Cc1ccc(Nc2nccc(N(C)c3ccc4c(C)n(C)nc4c3)n2)cc1S(N)(=O)=O [pazopanib]	-3.46	-2	-1.68		19	-4	-1	-3	-5	-0.507	-2.17
Cc1ccc(C(=O)Nc2ccc(CN3CCN(C)CC3)c(C(F)(F)F)c2)cc1C#Cc1cnc2cccnn12 [ponatinib]	-7.45	61	27		96	-3	12	2	-9	9	-0.575
N#CC[C@H](C1CCCC1)n1cc(-c2ncnc3[nH]ccc23)cn1 [ruxolitinib]	5.36	8	-2.5	-7	22	9		8	2.48	-12	0.766
CCN(CC)CCNC(=O)c1c(C)[nH]c(/C=C2\C(=O)Nc3ccc(F)cc32)c1C [sunitinib]			0.813								
COc1cc2c(Nc3ccc(Br)cc3F)ncnc2cc1OCC1CCN(C)CC1 [vandetanib]	-6.41	-2.19	-4.38		70	-9	-2.65	-2.71	-8	-21	-6
